In patent US9206130B2, “Quinoline derivatives as AXL kinase inhibitors” (Max-Planck-Gesellschaft zur Förderung der Wissenschaften …, priority 2008, dated 2015):

Assays:
[1] = target: T1, wild type AXL (wtAXL) receptor tyrosine kinase (Homo sapiens, UniProt P30530); assay: NIH-3T3-AXL cellular tyrosine kinase assay (inhibition of AXL phosphorylation); format: cell-based; conditions: AXL phosphorylation in NIH-3T3-AXL (clone 22) cells, serum-depleted, 2 h with compound, immunoprecipitation / anti-phosphotyrosine blot
T1 construct: WtAXL cDNA was cloned into vector pLXSN(ESK) and transfected into Phoenix E packaging cells; expressed in transfected cells; host or cells: NIH3T3 N7 mouse fibroblasts, retrovirally infected (clone 22)
T1 sequence (P30530 26-894): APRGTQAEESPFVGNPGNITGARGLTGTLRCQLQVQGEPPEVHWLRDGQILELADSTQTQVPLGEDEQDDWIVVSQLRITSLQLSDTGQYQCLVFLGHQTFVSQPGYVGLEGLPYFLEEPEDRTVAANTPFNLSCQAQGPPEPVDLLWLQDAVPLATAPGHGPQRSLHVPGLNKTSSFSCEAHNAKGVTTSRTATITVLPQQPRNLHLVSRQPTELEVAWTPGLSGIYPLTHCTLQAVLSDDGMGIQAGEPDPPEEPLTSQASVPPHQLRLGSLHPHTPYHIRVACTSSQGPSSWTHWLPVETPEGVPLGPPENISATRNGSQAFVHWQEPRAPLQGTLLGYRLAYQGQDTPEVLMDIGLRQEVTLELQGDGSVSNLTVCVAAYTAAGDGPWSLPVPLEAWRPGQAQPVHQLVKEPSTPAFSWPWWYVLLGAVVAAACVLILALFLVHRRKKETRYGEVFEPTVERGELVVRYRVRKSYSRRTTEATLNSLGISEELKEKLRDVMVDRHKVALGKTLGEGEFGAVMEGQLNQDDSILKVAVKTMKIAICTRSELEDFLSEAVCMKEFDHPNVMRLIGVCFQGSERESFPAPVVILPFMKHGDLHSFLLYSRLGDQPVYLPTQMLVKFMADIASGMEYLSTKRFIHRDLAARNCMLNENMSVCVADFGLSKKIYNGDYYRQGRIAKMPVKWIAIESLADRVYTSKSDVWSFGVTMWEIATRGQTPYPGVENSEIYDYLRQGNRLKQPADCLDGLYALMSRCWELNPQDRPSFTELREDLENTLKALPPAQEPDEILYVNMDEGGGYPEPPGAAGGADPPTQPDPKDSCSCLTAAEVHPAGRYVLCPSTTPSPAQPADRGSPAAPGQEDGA
Procedure: 3) Inhibitory Activity of Compounds on Axl Phosphorylation in NIH-3T3-AXL Cellular Tyrosine Kinase Assay
The viral supernatant was collected and used to infect target cells NIH3T3 N7. Monoclonal NIH3T3-AXL cell lines stably expressing wtAXL were generated by selecting retrovirally infected cells in medium containing puromycin (2 μg/ml) and subsequent clonal separation.
NIH-3T3-AXL Cellular Kinase Assay
Serial dilutions of compounds were added, and the cells were further incubated or 2 h. […] The clarified cell lysate (10 min at 13000 rpm at 4° C.) were used for immunoprecipitation. Equal amounts of protein were mixed with 2 μg anti-AXL polyclonal antibody (homemade) and 20 μl Protein A sepharose beads, and rotated for 6 hr at 4° C. After immunoprecipitation, the beads were washed three times with 1×HNTG (50 mM HEPES (pH 7.5), 150 mM NaCl, 10% Glycerol, 0.2% Triton X-100). The final pellet was suspended in 20 μl 2× Laemmli buffer, and boiled for 5 min at 100° C. […] The membrane was then incubated with anti-phosphotyrosine antibody (4G10) overnight at 4° C. followed by washing with 1×TBST buffer three times. After incubating membrane with HRP-conjugated anti-mouse secondary antibody for 1 hour at room temperature followed by washing with 1×TBST buffer three times, the proteins were visualized by ECL.

Row | IC50 [1] | melting point | Structure (SMILES)
1 | 2.38 µM | 250 to 251 °C | COc1cc2nccc(Oc3ccc(NS(=O)(=O)c4cccc(Cl)c4)c(F)c3)c2cc1OC [Example A25, 3-Chloro-N-[4-(6,7-dimethoxy-quinolin-4-yloxy)-2-fluoro-phenyl]-benzenesulfonamide]
2 | 4.73 µM | 244 to 245 °C | COc1cc2nccc(Oc3ccc(NS(=O)(=O)c4cccc(C)c4)c(F)c3)c2cc1OC [Example A26, N-[4-(6,7-Dimethoxy-quinolin-4-yloxy)-2-fluoro-phenyl]-3-methyl-benzenesulfonamide]
3 | 2.54 µM | 224 to 225 °C | COc1cccc(S(=O)(=O)Nc2ccc(Oc3ccnc4cc(OC)c(OC)cc34)cc2F)c1 [Example A27, N-[4-(6,7-Dimethoxy-quinolin-4-yloxy)-2-fluoro-phenyl]-3-methoxy-benzenesulfonamide]
4 | 3.9 µM | 187 to 189 °C | COc1cc2nccc(Oc3ccc(NS(=O)(=O)c4ccc(Cl)s4)c(F)c3)c2cc1OC [Example A28, 5-Chloro-thiophene-2-sulfonic acid [4-(6,7-dimethoxy-quinolin-4-yloxy)-2-fluoro-phenyl]-amide]
5 | 2.3 µM | 207 to 209 °C | COc1cc2nccc(Oc3ccc(NS(=O)(=O)c4ccc(Br)s4)c(F)c3)c2cc1OC [Example A29, 5-Bromo-thiophene-2-sulfonic acid [4-(6,7-dimethoxy-quinolin-4-yloxy)-2-fluoro-phenyl]-amide]
6 | 0.63 µM | 179 to 180 °C | COc1cc2nccc(Oc3ccc(NS(=O)(=O)c4cccc(Oc5ccccc5)c4)c(F)c3)c2cc1OC [Example A30, N-[4-(6,7-Dimethoxy-quinolin-4-yloxy)-2-fluoro-phenyl]-3-phenoxy-benzenesulfonamide]
7 | > 10 µM | 211 to 213 °C | CCn1cc(S(=O)(=O)Nc2ccc(Oc3ccnc4cc(OC)c(OC)cc34)cc2F)cn1 [Example A31, 1-Ethyl-1H-pyrazole-4-sulfonic acid [4-(6,7-dimethoxy-quinolin-4-yloxy)-2-fluoro-phenyl]-amide]
8 | > 10 µM | 215 to 217 °C | COc1cc2nccc(Oc3ccc(NS(=O)(=O)c4cn(C)cn4)c(F)c3)c2cc1OC [Example A32, 1-Methyl-1H-imidazole-4-sulfonic acid [4-(6,7-dimethoxy-quinolin-4-yloxy)-2-fluoro-phenyl]-amide]
9 | > 10 µM | 179 to 180 °C | COc1cc2nccc(Oc3ccc(NS(=O)(=O)C4CC4)c(F)c3)c2cc1OC [Example A33, Cyclopropanesulfonic acid [4-(6,7-dimethoxy-quinolin-4-yloxy)-2-fluoro-phenyl]-amide]
10 | 0.43 µM | 193 to 195 °C | COc1cc2nccc(Oc3ccc(NS(=O)(=O)c4cccc(-c5ccccc5)c4)c(F)c3)c2cc1OC [Example A34, Biphenyl-3-sulfonic acid [4-(6,7-dimethoxy-quinolin-4-yloxy)-2-fluoro-phenyl]-amide]
11 | 2.8 µM | 186 to 188 °C | COc1cc2nccc(Oc3ccc(NS(=O)(=O)c4ccc(-c5ccccc5)s4)c(F)c3)c2cc1OC [Example A36, 5-Phenyl-thiophene-2-sulfonic acid [4-(6,7-dimethoxy-quinolin-4-yloxy)-2-fluoro-phenyl]-amide]
12 | > 10 µM | 206 to 208 °C | COc1cc2nccc(Oc3ccc(NS(=O)(=O)c4ccc(-c5cnco5)s4)c(F)c3)c2cc1OC [Example A37, 5-Oxazol-5-yl-thiophene-2-sulfonic acid [4-(6,7-dimethoxy-quinolin-4-yloxy)-2-fluoro-phenyl]-amide]
13 | > 10 µM | 243 to 245 °C | COc1cc2nccc(Oc3ccc(NS(=O)(=O)c4cc(F)cc(F)c4)c(F)c3)c2cc1OC [Example A38, N-[4-(6,7-Dimethoxy-quinolin-4-yloxy)-2-fluoro-phenyl]-3,5-difluoro-benzenesulfonamide]
14 | < 1 µM | 240 to 242 °C | COc1cc2nccc(Oc3ccc(NS(=O)(=O)c4cc(Cl)cc(Cl)c4)c(F)c3)c2cc1OC [Example A43, 3,5-Dichloro-N-[4-(6,7-dimethoxy-quinolin-4-yloxy)-2-fluoro-phenyl]-benzenesulfonamide]
15 | > 10 µM | 236 to 238 °C | COc1cc2nccc(Oc3ccc(NS(=O)(=O)c4ccc(C(F)(F)F)cc4Br)c(F)c3)c2cc1OC [Example A45, 2-Bromo-N-[4-(6,7-dimethoxy-quinolin-4-yloxy)-2-fluoro-phenyl]-4-trifluoromethyl-benzenesulfonamide]
16 | > 10 µM | 227 to 230 °C | COc1cc2nccc(Oc3ccc(NS(=O)(=O)c4cc(C(F)(F)F)ccc4Br)c(F)c3)c2cc1OC [Example A46, 2-Bromo-N-[4-(6,7-dimethoxy-quinolin-4-yloxy)-2-fluoro-phenyl]-5-trifluoromethyl-benzenesulfonamide]
17 | 1.5 µM | 242 to 244 °C | COc1cc2nccc(Oc3ccc(NS(=O)(=O)c4ccc(Br)cc4C(F)(F)F)c(F)c3)c2cc1OC [Example A48, 4-Bromo-N-[4-(6,7-dimethoxy-quinolin-4-yloxy)-2-fluoro-phenyl]-2-trifluoromethyl-benzenesulfonamide]
18 | < 1 µM | 193 to 195 °C | COc1cc2nccc(Oc3ccc(NS(=O)(=O)c4cc(Cl)cc(Cl)c4OC)c(F)c3)c2cc1OC [Example A50, 3,5-Dichloro-N-[4-(6,7-dimethoxy-quinolin-4-yloxy)-2-fluoro-phenyl]-2-methoxy-benzenesulfonamide]
19 | > 3 µM | 213 to 215 °C | COc1cc2nccc(Oc3ccc(NS(=O)(=O)c4ccccc4OC)c(F)c3)c2cc1OC [Example A52, N-[4-(6,7-Dimethoxy-quinolin-4-yloxy)-2-fluoro-phenyl]-2-methoxy-benzenesulfonamide]
20 | > 1 µM | 232 to 234 °C | COc1cc2nccc(Oc3ccc(NS(=O)(=O)c4ccccc4Cl)c(F)c3)c2cc1OC [Example A54, 2-Chloro-N-[4-(6,7-dimethoxy-quinolin-4-yloxy)-2-fluoro-phenyl]-benzenesulfonamide]
21 | > 1 µM | 225 to 227 °C | COc1cc2nccc(Oc3ccc(NS(=O)(=O)c4ccccc4Br)c(F)c3)c2cc1OC [Example A55, 2-Bromo-N-[4-(6,7-dimethoxy-quinolin-4-yloxy)-2-fluoro-phenyl]-benzenesulfonamide]
22 | > 1 µM | 193 to 195 °C | CCc1ccc(S(=O)(=O)Nc2ccc(Oc3ccnc4cc(OC)c(OC)cc34)cc2F)cc1 [Example A56, N-[4-(6,7-Dimethoxy-quinolin-4-yloxy)-2-fluoro-phenyl]-4-ethyl-benzenesulfonamide]
23 | > 3 µM | 202 to 204 °C | COc1cc2nccc(Oc3ccc(NS(=O)(=O)c4ccc(Oc5ccccc5)cc4)c(F)c3)c2cc1OC [Example A57, N-[4-(6,7-Dimethoxy-quinolin-4-yloxy)-2-fluoro-phenyl]-4-phenoxy-benzenesulfonamide]
24 | > 1 µM | 204 to 206 °C | COc1cc2nccc(Oc3ccc(NS(=O)(=O)c4cccc(F)c4C)c(F)c3)c2cc1OC [Example A58, N-[4-(6,7-Dimethoxy-quinolin-4-yloxy)-2-fluoro-phenyl]-3-fluoro-2-methyl-benzenesulfonamide]
25 | > 1 µM | 235 to 236 °C | COc1cc2nccc(Oc3ccc(NS(=O)(=O)c4ccccc4F)c(F)c3)c2cc1OC [Example A59, N-[4-(6,7-Dimethoxy-quinolin-4-yloxy)-2-fluoro-phenyl]-2-fluoro-benzenesulfonamide]
